The test system of one assay is db/db mouse hearts. Kind of assay: Isolated working heart perfusion, cardiac energy metabolism (acute treatment), db/db. The conditions noted are these: for glucose oxidation / palmitate oxidation: isolated working db/db mouse hearts, 10 wk old. As to the method:
(§1) The effect of three different types of insulin, human insulin, insulin degludec, and the M1 metabolite of insulin glargine, on cardiac metabolism was determined in adult, 10 weeks old mice using either healthy C57Bl6 wildtype mice or Type-2 diabetes db/db mice. Mice were fed a standard chow diet and kept in 12 hr light: 12 hr dark cycle. To test their acute effect energy metabolism, hearts were removed from fully anesthetized mice, and perfused as isolated working hearts with Krebs Henseleit buffer (118.5 mM NaCl, 1.2 mM MgSO4, 25 mM NaHCO3, 4.7 mM KCl, 1.2 mM KH2PO4, 2.5 mM CaCl2) supplemented with 0.8 mM palmitate bound to 3% fatty acid-free bovine serum albumin (BSA), 5 mM glucose, and 0.5 mM lactate. Hearts underwent aerobic perfusion for 72 min with vehicle or increasing amounts of insulin (0, 25, 50, 100 μU/ml), insulin Degludec (0, 100, 300, 1000 μU/ml), or the M1 metabolite of insulin Glargine (0, 25, 50, 100 μU/ml). Each concentration escalation step lasted 18 minutes. At the end of the heart perfusion hearts were immediately snap frozen in liquid N2 and stored at −80° C. See FIG. 1 In order to measure glucose oxidation, glycolysis, palmitate oxidation, and lactate oxidation [U-^14C] glucose, [5-^3H] glucose, [9, 10-^3H] palmitate, and [U-^14C] lactate, respectively, were added to the perfusate as described above in Example 1. Glycolysis and palmitate oxidation rates were determined based on the rates of ^3H2O production. To determine glucose oxidation and lactate oxidation rates ^14CO2 production was assessed.

A further assay has as its system C57bl/6 mouse hearts. As to the kind of experiment: Isolated working heart perfusion, cardiac energy metabolism (acute treatment), C57bl/6. The conditions noted are these: for cardiac efficiency / % ATP from glucose oxidation / % ATP from palmitate oxidation: C57bl/6 mouse hearts; for glucose oxidation / palmitate oxidation: isolated working C57bl/6 mouse hearts, 10 wk old. The protocol:
as §1

Assay [1] deals with db/db mice. As to the kind of experiment: Chronic treatment of db/db mice: blood glucose and glucose tolerance. The conditions noted are these: 18 week old db/db mice; for blood glucose levels: 5 U/kg BW daily, data not shown; for blood glucose tolerance: 150 U/kg BW daily for 4 weeks. The assay is classed as in vivo, mouse. The protocol: (§2) In a second set 18 week old db/db mice were treated with vehicle, NPH insulin, Degludec, or Lantus daily for 4 weeks (see FIG. 8). 18 wk old db/db mice were specifically used because by this age they have a diastolic dysfunction. The original protocol involved treating the mice with either NPH insulin (5 U/kg BW), Degludec (5 U/kg BW), or Lantus (5 U/kg BW). […] Other groups have reported that a higher dose of insulin is required to control hyperglycemia in db/db mice. The highest dose that had been reported to be safe, was 150 U/kg BW, which was then used for future experiments. Treating the mice with 150 U/kg BW of NPH insulin, Degludec, or Lantus improved blood glucose tolerance much more dramatically (FIG. 9). At the end of the 4 week treatment period, the cardiac energy metabolism and function was assessed via echocardiography. The Vevo 770 high resolution echocardiography imaging system was used to assess in vivo cardiac function was assessed in isoflurane anesthetized mice.

A further assay has as its system Akt. Kind of assay: Western Blot Analysis of cardiac Akt phosphorylation after acute treatment. The note with it: db/db mouse hearts. The protocol:
The phosphorylation status of several enzymes involved in insulin signaling were also assessed in the C57bl/6 and db/db mouse hearts treated acutely with insulin, Degludec, or Lantus, via Western Blot Analysis. Frozen heart issue was homogenized for 30 sec in homogenization buffer (50 mM Tris HCl, 10% glycerol, 1 mM EDTA, 0.02% Brij-35, 1 mM DTT, and protease and phosphatase inhibitors (Sigma)). After sitting on ice at least 10 min, tissue homogenates were centrifuged at 10,000×g for 20 min. The supernatant was then stored at −80° C. Protein concentration of supernatant was determined using the Bradford protein assay. After running samples on SDS-polyacrylamide gel electrophoresis, protein was transferred onto nitrocellulose membrane. Primary antibodies included pAkt Ser473 (Cell Signaling 9271), Akt (Cell Signaling 9272), pGSK3α/β Ser21/9 (Cell Signaling 9331), GSK3β (Cell Signaling 9315), pPDH Ser293 (Calbiochem AP1062), and PDH (Cell Signaling 2784). Protein bands were visualized on autoradiography film using enhanced chemiluminescence (Perkin Elmer) and quantified with Image J.
On the technique in general: In western blotting, separated proteins are transferred to a membrane and probed.

Assay [2] concerns db/db mice. As to the kind of experiment: Chronic treatment of db/db mice: in vivo cardiac function by echocardiography. Details: species or system mouse. The note with it: chronic treatment 4 weeks. The protocol:
The long-term effects of insulin treatment on cardiac function was assessed in two different settings. In acute treatments, measurements were performed in isolated working hearts from either wildtype mice (C57Bl) or mice with a diabetes type-2 phenotype (db/db mice). In a second chronic setting, db/db animals were treated for 4 weeks with daily administration of different high doses of insulins to achieve similar effects on systemic hypergycaemia. At the end of the chronic study, effects on cardiac function was assessed by echocardiography.
as §2

“Also recorded” adds a separate entry of the source.

“Gly (A21) human insulin [M1-metabolite of insulin glargine]”: the cardiac efficiency result with db/db mouse hearts (db/db mouse hearts) is “improved”. In addition, in the assay with db/db mouse hearts, the glucose oxidation entry was “able to stimulate” and the palmitate oxidation entry is “inhibit”. Moreover, in the assay on C57bl/6 mouse hearts, the cardiac efficiency result is “improved”, the glucose oxidation entry is reported as “able to stimulate” and the palmitate oxidation entry is given as “inhibit”.

As to NPH insulin: long acting basal insulin, in the assay on db/db mice [1], the blood glucose levels result is “did not reduce” and the blood glucose tolerance result is given as “improved”.

For insulin: human insulin, in the assay with db/db mouse hearts (db/db mouse hearts), the “% ATP from glucose oxidation” value was 13% and the “% ATP from palmitate oxidation” value was determined as 53%. Further, in the assay with C57bl/6 mouse hearts, the “% ATP from glucose oxidation” value worked out at 18% and the “% ATP from palmitate oxidation” value stood at 55%.

In the case of “Gly (A21), Arg (B31), Arg (B32) human insulin [Lantus]”, in the assay on db/db mice [1], the blood glucose levels entry is recorded as “did not reduce” and the blood glucose tolerance entry is “improved”. For the same substance, the pAkt result with Akt is “significantly increased”. In the assay with db/db mouse hearts (db/db mouse hearts), the “% ATP from glucose oxidation” value turned out to be 14% and the “% ATP from palmitate oxidation” value is recorded as 56%. For the same substance, in the assay on db/db mouse hearts, the glucose oxidation result is on record as “stimulates” and the palmitate oxidation entry is “decreases”. Besides, in the assay on C57bl/6 mouse hearts, the “% ATP from glucose oxidation” value is listed as 30%, the “% ATP from palmitate oxidation” value is listed as 37%, the cardiac efficiency entry is reported as “improves” and the glucose oxidation result is reported as “stimulates”. For the same substance, the palmitate oxidation result in the assay with C57bl/6 mouse hearts was “decreases”. Besides, in the assay on db/db mice [2], the cardiac output result is recorded as “significantly increased; also recorded: improved”, the cardiac stroke volume entry is reported as “significantly increased; also recorded: improved” and the “in vivo cardiac function” value is given as “improved”. Besides, in the assay on db/db mice [2] (listed as lantus), the “in vivo cardiac function” value was “improves”.

On to Degludec, for which, in the assay on db/db mice [1], the blood glucose levels entry was “did not reduce” and the blood glucose tolerance result is given as “improved”. In the assay with db/db mouse hearts (db/db mouse hearts), the “% ATP from glucose oxidation” value is recorded as 5% and the “% ATP from palmitate oxidation” value was 75%. Besides, in the assay on db/db mouse hearts, the glucose oxidation entry is reported as “not” and the palmitate oxidation entry is “not”. For the same substance, in the assay with C57bl/6 mouse hearts, the “% ATP from glucose oxidation” value turned out to be 12%, the “% ATP from palmitate oxidation” value amounted to 62%, the glucose oxidation result is “not” and the palmitate oxidation result is listed as “not”.

These data come from US20180369342A1, “CARDIAC METABOLIC EFFECT OF LANTUS” (Sanofi-Aventis Deutschland GmbH, priority 2015, published 2018).
